{"source": "the supplement of paper PMC10307832", "assay_in_all_cases": "relative viability (nuclei count vs DMSO), 5 days (fraction); higher = more cells survive", "key": {"[1]": {"system": "NCI-H1437", "method_in_brief": "(§1)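 Lung cancer cell lines were seeded in 1536-well plates and dosed by pin tool the next day, with either a single drug or a fixed anchor-drug dose combined with five library-drug doses (not always all listed) spaced in √10 steps. Five days later, one step fixed the cells and stained their nuclei (final 0.05% Triton X-100, 1% formaldehyde, 1 ug/ml Hoechst), and nuclei were counted on 4× images. Relative viability is the nuclei count in treated wells divided by the count in vehicle wells, and each value is the median of duplicate plates.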"}, "[2]": {"system": "NCI-H1666", "method_in_brief": "as §1"}, "[3]": {"system": "NCI-H1792", "method_in_brief": "as §1"}, "[4]": {"system": "NCI-H1975", "method_in_brief": "as §1"}, "[5]": {"system": "NCI-H23", "method_in_brief": "as §1"}, "[6]": {"system": "NCI-H358", "method_in_brief": "as §1"}, "[7]": {"system": "NCI-H441", "method_in_brief": "as §1"}, "[8]": {"system": "NCI-H596", "method_in_brief": "as §1"}, "[9]": {"system": "NCI-H650", "method_in_brief": "as §1"}, "[10]": {"system": "NCI-H838", "method_in_brief": "as §1"}, "[11]": {"system": "SK-MES-1", "method_in_brief": "as §1"}, "[12]": {"system": "SW 900", "method_in_brief": "as §1"}}, "data": [{"smiles": "CC1(C)CCC(c2ccc(Cl)cc2)=C(CN2CCN(c3ccc(C(=O)NS(=O)(=O)c4ccc(N[C@H](CCN5CCOCC5)CSc5ccccc5)c(S(=O)(=O)C(F)(F)F)c4)cc3)CC2)C1", "note": "[Navitoclax] + Nc1nc2[nH]cc(CCc3ccc(C(=O)N[C@@H](CCC(=O)O)C(=O)O)cc3)c2c(=O)[nH]1 [Pemetrexed] (partner 0.2 µM)", "values": [{"measurement": "relative viability", "setting": "[1]; first compound 0.01581 µM", "result": 0.336}, {"measurement": "relative viability", "setting": "[1]; first compound 0.05 µM", "result": 0.282}, {"measurement": "relative viability", "setting": "[1]; first compound 0.1581 µM", "result": 0.311}, {"measurement": "relative viability", "setting": "[1]; first compound 0.5 µM", "result": 0.356}, {"measurement": "relative viability", "setting": "[2]; first compound 0.005 µM", "result": 0.867}, {"measurement": "relative viability", "setting": "[2]; first compound 0.01581 µM", "result": 0.964}, {"measurement": "relative viability", "setting": "[2]; first compound 0.05 µM", "result": 0.836}, {"measurement": "relative viability", "setting": "[2]; first compound 0.1581 µM", "result": 0.831}, {"measurement": "relative viability", "setting": "[2]; first compound 0.5 µM", "result": 0.966}, {"measurement": "relative viability", "setting": "[3]; first compound 0.005 µM", "result": 0.917}, {"measurement": "relative viability", "setting": "[3]; first compound 0.01581 µM", "result": 0.82}, {"measurement": "relative viability", "setting": "[3]; first compound 0.1581 µM", "result": 0.716}, {"measurement": "relative viability", "setting": "[3]; first compound 0.5 µM", "result": 0.738}, {"measurement": "relative viability", "setting": "[4]; first compound 0.005 µM", "result": 0.292}, {"measurement": "relative viability", "setting": "[4]; first compound 0.01581 µM", "result": 0.312}, {"measurement": "relative viability", "setting": "[4]; first compound 0.05 µM", "result": 0.343}, {"measurement": "relative viability", "setting": "[4]; first compound 0.1581 µM", "result": 0.301}, {"measurement": "relative viability", "setting": "[4]; first compound 0.5 µM", "result": 0.299}, {"measurement": "relative viability", "setting": "[5]; first compound 0.005 µM", "result": 0.594}, {"measurement": "relative viability", "setting": "[5]; first compound 0.01581 µM", "result": 0.665}, {"measurement": "relative viability", "setting": "[5]; first compound 0.05 µM", "result": 0.707}, {"measurement": "relative viability", "setting": "[5]; first compound 0.1581 µM", "result": 0.603}, {"measurement": "relative viability", "setting": "[5]; first compound 0.5 µM", "result": 0.645}, {"measurement": "relative viability", "setting": "[6]; first compound 0.005 µM", "result": 0.17}, {"measurement": "relative viability", "setting": "[6]; first compound 0.01581 µM", "result": 0.173}, {"measurement": "relative viability", "setting": "[6]; first compound 0.05 µM", "result": 0.167}, {"measurement": "relative viability", "setting": "[6]; first compound 0.1581 µM", "result": 0.165}, {"measurement": "relative viability", "setting": "[6]; first compound 0.5 µM", "result": 0.187}, {"measurement": "relative viability", "setting": "[7]; first compound 0.005 µM", "result": 0.238}, {"measurement": "relative viability", "setting": "[7]; first compound 0.01581 µM", "result": 0.24}, {"measurement": "relative viability", "setting": "[7]; first compound 0.05 µM", "result": 0.258}, {"measurement": "relative viability", "setting": "[7]; first compound 0.1581 µM", "result": 0.232}, {"measurement": "relative viability", "setting": "[7]; first compound 0.5 µM", "result": 0.296}, {"measurement": "relative viability", "setting": "[8]; first compound 0.005 µM", "result": 0.418}, {"measurement": "relative viability", "setting": "[8]; first compound 0.01581 µM", "result": 0.459}, {"measurement": "relative viability", "setting": "[8]; first compound 0.05 µM", "result": 0.5}, {"measurement": "relative viability", "setting": "[8]; first compound 0.1581 µM", "result": 0.439}, {"measurement": "relative viability", "setting": "[8]; first compound 0.5 µM", "result": 0.39}, {"measurement": "relative viability", "setting": "[9]; first compound 0.005 µM", "result": 0.9}, {"measurement": "relative viability", "setting": "[9]; first compound 0.01581 µM", "result": 1.05}, {"measurement": "relative viability", "setting": "[9]; first compound 0.05 µM", "result": 0.908}, {"measurement": "relative viability", "setting": "[9]; first compound 0.1581 µM", "result": 0.95}, {"measurement": "relative viability", "setting": "[9]; first compound 0.5 µM", "result": 0.999}, {"measurement": "relative viability", "setting": "[10]; first compound 0.005 µM", "result": 0.242}, {"measurement": "relative viability", "setting": "[10]; first compound 0.01581 µM", "result": 0.254}, {"measurement": "relative viability", "setting": "[10]; first compound 0.05 µM", "result": 0.28}, {"measurement": "relative viability", "setting": "[10]; first compound 0.1581 µM", "result": 0.266}, {"measurement": "relative viability", "setting": "[10]; first compound 0.5 µM", "result": 0.244}, {"measurement": "relative viability", "setting": "[11]; first compound 0.005 µM", "result": 0.913}, {"measurement": "relative viability", "setting": "[11]; first compound 0.01581 µM", "result": 1.05}, {"measurement": "relative viability", "setting": "[11]; first compound 0.05 µM", "result": 1.03}, {"measurement": "relative viability", "setting": "[11]; first compound 0.1581 µM", "result": 0.884}, {"measurement": "relative viability", "setting": "[11]; first compound 0.5 µM", "result": 0.927}, {"measurement": "relative viability", "setting": "[12]; first compound 0.005 µM", "result": 0.471}, {"measurement": "relative viability", "setting": "[12]; first compound 0.01581 µM", "result": 0.476}, {"measurement": "relative viability", "setting": "[12]; first compound 0.1581 µM", "result": 0.452}, {"measurement": "relative viability", "setting": "[12]; first compound 0.5 µM", "result": 0.441}]}]}
